Key:
hiPSC-CMs [1] = experiment: reactive oxygen species assay (ROS-Glo H2O2); assay type: cell-based, human; conditions: isogenic hiPSC-CMs, 24 h doxorubicin
Experimental: (§1) 384-well plate-based cell viability, caspase 3/7 activity, and reactive oxygen species (ROS) assays. […] Luminescence was measured using a VarioSkan Lux Multi-Mode Reader (Thermo Scientific) with an integration time of 0.25 sec. 10 μM staurosporine (MedChemExpress) was used as a positive control. […] 10 μM staurosporine and 50 μM menadione (both MedChemExpress) was used as a positive control, respectively. Data were analyzed using Prism 7.0 software (GraphPad) using standard dose-response guidelines.

hiPSC-CMs [2] = experiment: RNA-seq gene expression analysis of hiPSC-CMs after doxorubicin; conditions: 1 μM doxorubicin, 24 h
Text: RNA-seq gene expression analysis. […] RNA was extracted using TRI Reagent and Direct-zol RNA microprep kit (both Zymo) including on-column DNase digestion to remove genomic DNA. Samples were quantified using an Agilent 2100 Bioanalyzer and passed QC. Library preparation was done using a TruSeq RNA v2 kit (Illumina) and sequencing with NextSeq 500 instrument (Illumina) by Northwestern's NuSeq core facility, generating ˜40 million single-end 75 bp reads for each sample. Reads were mapped to the GRCh38 reference human genome using Subread software (Liao et al., 2013). Gene expression levels and exon usage were estimated using featureCounts function in the Subread software (Liao et al., 2013). Differential gene expression analysis was done using Deseq2 package (Love et al., 2014) and R (v3.3.3).

Hs 578T = experiment: breast cancer cell viability after 72 h of doxorubicin and RARG agonists co-treatment; conditions: doxorubicin 72 h, Vehicle (no agonist)
Experimental: as §1
Breast cancer cell lines. Four human breast cancer cell lines were used, MCF7 (adenocarcinoma, ATCC HTB-22) and Hs 578T (carcinsarcoma, ATCC HTB-126) both cultured in RPMI 1640 (Corning) with 10% FBS (Opti-Gold, GenDEPOT), MDA-MB-231 (adenocarcinoma, ATCC HTB-26) and MDA-MB-468 (adenocarcinoma, ATCC HTB-131) both cultured in DMEM (Corning) with 10% FBS. All cells were cultured on uncoated tissue culture plates (Greiner) and passaged with TrypLE Express (Gibco).

`COc1cccc2c1C(=O)c1c(O)c3c(c(O)c1C2=O)C[C@@](O)(C(=O)CO)C[C@@H]3O[C@H]1C[C@H](N)[C@H](O)[C@H](C)O1` [doxorubicin] was tested, and the ROS production (hiPSC-CMs [1]) was “concentration-dependent increase in ROS production”, the “Log2fc AC009014.3” value (hiPSC-CMs [2]) was 5.25 and the “Log2fc AC010136.2” value (hiPSC-CMs [2]) was −3.13. The “Log2fc ADCYAP1R1” value (hiPSC-CMs [2]) was 6.25, the “Log2fc AL591893.1” value (hiPSC-CMs [2]) was 6.49 and the “Log2fc BUB1B” value (hiPSC-CMs [2]) was −2.89. For the same compound, the “Log2fc C11orf87” value (hiPSC-CMs [2]) was −3.03, the “Log2fc CA7” value (hiPSC-CMs [2]) was 5.41 and the “Log2fc CAV3” value (hiPSC-CMs [2]) was −3.53. For the same compound, the “Log2fc CCDC60” value (hiPSC-CMs [2]) was 4.98, the “Log2fc CCDC178” value (hiPSC-CMs [2]) was 5.45 and the “Log2fc CENPA” value (hiPSC-CMs [2]) was −2.97. The “Log2fc CENPE” value (hiPSC-CMs [2]) was −3.10, the “Log2fc CENPI” value (hiPSC-CMs [2]) was −3.23 and the “Log2fc CHI3L2” value (hiPSC-CMs [2]) was 5.04. The “Log2fc CLCA2” value (hiPSC-CMs [2]) was 5.42, the “Log2fc CMB9.22P13.2” value (hiPSC-CMs [2]) was 4.99 and the “Log2fc CRTAC1” value (hiPSC-CMs [2]) was 5.32. For the same compound, the “Log2fc CSTA” value (hiPSC-CMs [2]) was 5.15, the “Log2fc CTD.2083E4.7” value (hiPSC-CMs [2]) was −3.85 and the “Log2fc CYP2J2” value (hiPSC-CMs [2]) was −2.82. For the same compound, the “Log2fc DAND5” value (hiPSC-CMs [2]) was −4.17, the “Log2fc DIRAS2” value (hiPSC-CMs [2]) was −3.30 and the “Log2fc DOK7” value (hiPSC-CMs [2]) was −3.42. The “Log2fc DORAS1” value (hiPSC-CMs [2]) was −2.90, the “Log2fc EN2” value (hiPSC-CMs [2]) was 4.93 and the “Log2fc ETV7” value (hiPSC-CMs [2]) was 6.04. For the same compound, the “Log2fc FABP5P3” value (hiPSC-CMs [2]) was 4.97, the “Log2fc FAM196A” value (hiPSC-CMs [2]) was 6.36 and the “Log2fc FBXL22” value (hiPSC-CMs [2]) was −2.80. The “Log2fc FBXO40” value (hiPSC-CMs [2]) was −2.86, the “Log2fc FOXD3” value (hiPSC-CMs [2]) was 5.31 and the “Log2fc FUT1” value (hiPSC-CMs [2]) was −2.91. For the same compound, the “Log2fc GCK” value (hiPSC-CMs [2]) was −3.14, the “Log2fc GDNF” value (hiPSC-CMs [2]) was 5.54 and the “Log2fc GPR87” value (hiPSC-CMs [2]) was 6.48. For the same compound, the “Log2fc GRHL3” value (hiPSC-CMs [2]) was 5.45, the “Log2fc HIST1H2AG” value (hiPSC-CMs [2]) was 5.29 and the “Log2fc HIST1H2AI” value (hiPSC-CMs [2]) was 5.70. The “Log2fc HIST1H2BF” value (hiPSC-CMs [2]) was 6.22, the “Log2fc HIST1H2BG” value (hiPSC-CMs [2]) was 4.94 and the “Log2fc HIST1H3A” value (hiPSC-CMs [2]) was 5.14. For the same compound, the “Log2fc HIST1H3H” value (hiPSC-CMs [2]) was 5.59, the “Log2fc HIST1H3J” value (hiPSC-CMs [2]) was 5.16 and the “Log2fc HIST1H4B” value (hiPSC-CMs [2]) was 5.29. The “Log2fc HPR” value (hiPSC-CMs [2]) was −3.01, the “Log2fc HRK” value (hiPSC-CMs [2]) was −3.01 and the “Log2fc IGFL3” value (hiPSC-CMs [2]) was 5.18. For the same compound, the “Log2fc INSM1” value (hiPSC-CMs [2]) was 4.97, the “Log2fc KCNK3” value (hiPSC-CMs [2]) was −3.07 and the “Log2fc KCNK10” value (hiPSC-CMs [2]) was 6.80. The “Log2fc KIF18B” value (hiPSC-CMs [2]) was −2.86, the “Log2fc LINC01164” value (hiPSC-CMs [2]) was 4.96 and the “Log2fc LINC01224” value (hiPSC-CMs [2]) was −3.31. For the same compound, the “Log2fc LINC01489” value (hiPSC-CMs [2]) was −3.45, the “Log2fc LRRC10” value (hiPSC-CMs [2]) was −3.05 and the “Log2fc LRRC14B” value (hiPSC-CMs [2]) was −4.13. For the same compound, the “Log2fc MIR145” value (hiPSC-CMs [2]) was −3.74, the “Log2fc NEIL3” value (hiPSC-CMs [2]) was −2.89 and the “Log2fc NFE2” value (hiPSC-CMs [2]) was −3.03. The “Log2fc NHLH2” value (hiPSC-CMs [2]) was 7.10, the “Log2fc NKX1.2” value (hiPSC-CMs [2]) was 5.72 and the “Log2fc NMUR1” value (hiPSC-CMs [2]) was −2.85. For the same compound, the “Log2fc NOTO” value (hiPSC-CMs [2]) was 5.13, the “Log2fc NPBWR1” value (hiPSC-CMs [2]) was 5.06 and the “Log2fc NUF2” value (hiPSC-CMs [2]) was −2.87. For the same compound, the “Log2fc PAX5” value (hiPSC-CMs [2]) was 6.11, the “Log2fc PEG13” value (hiPSC-CMs [2]) was −3.16 and the “Log2fc POU3F1” value (hiPSC-CMs [2]) was 7.21. The “Log2fc PRSS42” value (hiPSC-CMs [2]) was −2.89, the “Log2fc PRSS44” value (hiPSC-CMs [2]) was −3.02 and the “Log2fc RP1.34B20.4” value (hiPSC-CMs [2]) was 5.94. For the same compound, the “Log2fc RP1.46F2.3” value (hiPSC-CMs [2]) was −3.03, the “Log2fc RP3.326I13.1” value (hiPSC-CMs [2]) was 5.19 and the “Log2fc RP3.412A9.12” value (hiPSC-CMs [2]) was −2.87. The “Log2fc RP4.794I6.4” value (hiPSC-CMs [2]) was 5.33, the “Log2fc RP5.1139B12.4” value (hiPSC-CMs [2]) was −3.80 and the “Log2fc RP5.1148A21.3” value (hiPSC-CMs [2]) was 5.37. For the same compound, the “Log2fc RP5.884C9.2” value (hiPSC-CMs [2]) was 5.53, the “Log2fc RP11.108M9.3” value (hiPSC-CMs [2]) was −4.12 and the “Log2fc RP11.1149O23.2” value (hiPSC-CMs [2]) was 5.86. The “Log2fc RP11.19O2.1” value (hiPSC-CMs [2]) was −3.69, the “Log2fc RP11.234B24.2” value (hiPSC-CMs [2]) was −2.89 and the “Log2fc RP11.529G21.2” value (hiPSC-CMs [2]) was 5.03. The “Log2fc RP11.712B9.2” value (hiPSC-CMs [2]) was 5.10, the “Log2fc RPL7P3” value (hiPSC-CMs [2]) was −3.03 and the “Log2fc SEC14L5” value (hiPSC-CMs [2]) was −3.33. For the same compound, the “Log2fc SLC4A11” value (hiPSC-CMs [2]) was 5.81, the “Log2fc SLC5A1” value (hiPSC-CMs [2]) was −2.94 and the “Log2fc TFAP2C” value (hiPSC-CMs [2]) was 4.93. For the same compound, the “Log2fc TGFB111” value (hiPSC-CMs [2]) was −2.77, the “Log2fc TMEM72” value (hiPSC-CMs [2]) was −2.93 and the “Log2fc TMEM88” value (hiPSC-CMs [2]) was −2.81. The “Log2fc TMEM158” value (hiPSC-CMs [2]) was 5.19, the “Log2fc TMEM229B” value (hiPSC-CMs [2]) was 4.99 and the “Log2fc TNFRSF10A” value (hiPSC-CMs [2]) was 5.25. For the same compound, the “Log2fc UTS2R” value (hiPSC-CMs [2]) was −3.09, the “Log2fc XIRP2” value (hiPSC-CMs [2]) was −2.88 and the “Log2fc ZNF385C.1” value (hiPSC-CMs [2]) was −3.34. For the same compound, the “genes associated with apoptosis, DNA damage, oxidative stress, and doxorubicin resistance” value (hiPSC-CMs [2]; RNA-seq) was “significant upregulation”, the “genes associated with cardiac function” value (hiPSC-CMs [2]; RNA-seq) was “downregulation” and the LD50 (Hs 578T) was 1.829 µM.

Reference: patent publication US11135236B2, “Retinoic acid receptor gamma agonists to attenuate anthracycline-induced cardiotoxicity” (Northwestern University, priority 2018, dated 2021)
